The test system of the experiment is MPNST multicellular tumor spheroids, viability % test/control. Description: Anticancer human tumor MPNST cell line growth inhibition.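 On all read-outs here: spheroids exposed to agents for seven days after three days of growth.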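 On viability, T/C: luminescence signal used as surrogate for viable cell amount.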 The following applies: for viability, T/C: stronger effect = lower value. The method, boiled down:
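Single agents and combinations were tested on spheroids built from tumor cells plus HUVEC and hMSC, at half-log dilutions starting at or near clinical Cmax, else 10 microM; final DMSO 0.25% (v/v).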

The mark [1] stands for this setting: curve of first compound, second compound 30 pM.
The mark [2] stands for this setting: curve of first compound, second compound 94.9 pM.
[3] abbreviates: curve of first compound, second compound 0.0003 µM.
Where [4] appears, read: curve of first compound, second compound 0.000949 µM.
Where [5] appears, read: curve of first compound, second compound 0.003 µM.

Experimental findings from PubChem BioAssay AID1845205 (Molecular Pharmacology Branch, DTP, NCI, 2023) are described below.

Molecules are shown by their SMILES. Where “and” joins values, the source holds several entries; their conditions need not be identical. Equal entries are not always repeated.

The IC50 is the concentration that gives 50% inhibition. As a reminder, the viability, T/C is the ratio of treated to control. As for `CC1COCCN1c1cc(-c2ccnn2C)c2ccnc(-c3ccn[nH]3)c2n1` (stereo not drawn) + COc1cc2c(cc1O)CCNC21CSC2c3c(OC(C)=O)c(C)c4c(c3C(COC1=O)N1C(O)C3Cc5cc(C)c(OC)c(O)c5C(C21)N3C)OCO4, the IC50 is, setting by setting: under setting [1], < 0.0316 µM; under setting [2], < 0.0316 µM; under setting [3], < 0.0316 µM; under setting [4], < 0.0316 µM; under setting [5], < 0.0316 µM. The viability, T/C runs as follows: (second compound 30 pM, first compound 0.0316 µM) 47.3%; (second compound 30 pM, first compound 0.1 µM) 48.1%; (second compound 30 pM, first compound 0.316 µM) 42%; (second compound 30 pM, first compound 1 µM) 39.2%; (second compound 30 pM, first compound 3.16 µM) 31.1%; (second compound 30 pM, first compound 10 µM) 25.6%. Further, the viability, T/C is, setting by setting: (second compound 94.9 pM, first compound 0.0316 µM) 47.8%; (second compound 94.9 pM, first compound 0.1 µM) 44.8%; (second compound 94.9 pM, first compound 0.316 µM) 39.4%; (second compound 94.9 pM, first compound 1 µM) 33%; (second compound 94.9 pM, first compound 3.16 µM) 29.2%; (second compound 94.9 pM, first compound 10 µM) 25.6%. Further, the viability, T/C is, setting by setting: (second compound 0.0003 µM, first compound 0.0316 µM) 47.8%; (second compound 0.0003 µM, first compound 0.1 µM) 44.9%; (second compound 0.0003 µM, first compound 0.316 µM) 38.7%; (second compound 0.0003 µM, first compound 1 µM) 36.9%; (second compound 0.0003 µM, first compound 3.16 µM) 28.8%; (second compound 0.0003 µM, first compound 10 µM) 24.6%. For the same molecule, the viability, T/C (second compound 0.000949 µM, first compound 0.0316 µM) was 45.4%; the viability, T/C (second compound 0.000949 µM, first compound 0.1 µM) is 41.2%; the viability, T/C (second compound 0.000949 µM, first compound 0.316 µM) was 39.4%; the viability, T/C (second compound 0.000949 µM, first compound 1 µM) is 31.3%; the viability, T/C (second compound 0.000949 µM, first compound 3.16 µM) was 24.2%; the viability, T/C (second compound 0.000949 µM, first compound 10 µM) was 20.7%. In addition, the viability, T/C is 12.2% (second compound 0.003 µM, first compound 0.0316 µM); 11.1% (second compound 0.003 µM, first compound 0.1 µM); 10.5% (second compound 0.003 µM, first compound 0.316 µM); 6.65% (second compound 0.003 µM, first compound 1 µM); 5.18% (second compound 0.003 µM, first compound 3.16 µM); 4.99% (second compound 0.003 µM, first compound 10 µM).
Take `COc1cc(C)[nH]c(=O)c1CN1CCc2c(Cl)cc(C(OC)C3COC3)c(Cl)c2C1=O` (stereo not drawn): the viability, T/C runs as follows: (compound 0.0316 µM) 77.2% and 80.5% and 102%; (compound 0.1 µM) 79.6% and 90% and 88.8%; (compound 0.316 µM) 84.7% and 83.3% and 96%; (compound 1 µM) 95.8% and 93.7% and 93.3%; (compound 3.16 µM) 89.1% and 96.8% and 98.1%; (compound 10 µM) 85.9% and 98.7% and 92.1%. For the same molecule, the IC50 (curve of compound) was > 10 µM.
On to `O=C(c1cc(Cc2n[nH]c(=O)c3ccccc23)ccc1F)N1CCN(C(=O)C2CC2)CC1`, for which the viability, T/C runs as follows: (compound 0.0949 µM) 88.3% and 108% and 83.2%; (compound 0.3 µM) 75.1% and 84.1% and 60.3%; (compound 0.949 µM) 79.3% and 91.9% and 51.5%; (compound 3 µM) 95.2% and 96.5% and 51.2%; (compound 9.49 µM) 68.4% and 72.2% and 27.7%; (compound 30 µM) 49.3% and 56.8% and 28%.
Turning to `Cn1ncnc1[C@H]1c2n[nH]c(=O)c3cc(F)cc(c23)N[C@@H]1c1ccc(F)cc1` + COc1cc2c(cc1O)CCNC21CSC2c3c(OC(C)=O)c(C)c4c(c3C(COC1=O)N1C(O)C3Cc5cc(C)c(OC)c(O)c5C(C21)N3C)OCO4, the IC50 reads like this: under setting [1], 1.52 µM; under setting [2], 0.259 µM; under setting [3], 0.0689 µM; under setting [4], < 0.00949 µM; under setting [5], < 0.00949 µM. The viability, T/C (second compound 30 pM, first compound 0.00949 µM) is 64.4%; the viability, T/C (second compound 30 pM, first compound 0.03 µM) is 75.2%; the viability, T/C (second compound 30 pM, first compound 0.0949 µM) was 58.3%; the viability, T/C (second compound 30 pM, first compound 0.3 µM) was 59.1%; the viability, T/C (second compound 30 pM, first compound 0.949 µM) was 52.7%; the viability, T/C (second compound 30 pM, first compound 3 µM) was 46%. The viability, T/C (second compound 94.9 pM, first compound 0.00949 µM) was 68.9%; the viability, T/C (second compound 94.9 pM, first compound 0.03 µM) was 86.8%; the viability, T/C (second compound 94.9 pM, first compound 0.0949 µM) is 67%; the viability, T/C (second compound 94.9 pM, first compound 0.3 µM) was 49.9%; the viability, T/C (second compound 94.9 pM, first compound 0.949 µM) is 45.3%; the viability, T/C (second compound 94.9 pM, first compound 3 µM) was 46%. Moreover, the viability, T/C is, setting by setting: (second compound 0.0003 µM, first compound 0.00949 µM) 53.1%; (second compound 0.0003 µM, first compound 0.03 µM) 53.6%; (second compound 0.0003 µM, first compound 0.0949 µM) 47%; (second compound 0.0003 µM, first compound 0.3 µM) 49%; (second compound 0.0003 µM, first compound 0.949 µM) 43%; (second compound 0.0003 µM, first compound 3 µM) 41.9%. Moreover, the viability, T/C runs as follows: (second compound 0.000949 µM, first compound 0.00949 µM) 51.6%; (second compound 0.000949 µM, first compound 0.03 µM) 41.6%; (second compound 0.000949 µM, first compound 0.0949 µM) 40.9%; (second compound 0.000949 µM, first compound 0.3 µM) 44.4%; (second compound 0.000949 µM, first compound 0.949 µM) 38%; (second compound 0.000949 µM, first compound 3 µM) 29.9%. The viability, T/C was 13.7% (second compound 0.003 µM, first compound 0.00949 µM); 15.3% (second compound 0.003 µM, first compound 0.03 µM); 9.43% (second compound 0.003 µM, first compound 0.0949 µM); 9.63% (second compound 0.003 µM, first compound 0.3 µM); 6.89% (second compound 0.003 µM, first compound 0.949 µM); 2.68% (second compound 0.003 µM, first compound 3 µM).
